{"source": "patent US20230219904A1", "about": "(SYNGENTA CROP PROTECTION AG, priority 2020, published 2023)", "type_in_all_cases": "in vivo", "conditions_in_all_cases": "evaluated after 13 days", "key": {"[1]": {"system": "Echinochloa crus-galh (ECHCG)", "assay": "Post-emergence herbicidal glasshouse test (Table B1)", "procedure,_shortened": "(§1)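 Pre: spray 1 d after sowing; post: spray after 8 d growth. Rate 500 g/h (default); vehicle acetone/water 50:50, 0.5% Tween 20. Glasshouse 24/16° C, 14 h light, 65% humidity. Readout % damage at 13 d, 5-point scale.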"}, "[2]": {"system": "Abutilon theophrasti (ABUTH)", "assay": "Post-emergence herbicidal glasshouse test (Table B1)", "procedure,_shortened": "as §1"}, "[3]": {"system": "Ipomoea hederacea (IPOHE)", "assay": "Post-emergence herbicidal glasshouse test (Table B1)", "procedure,_shortened": "as §1"}, "[4]": {"system": "Amaranthus retoflexus (AMARE)", "assay": "Post-emergence herbicidal glasshouse test (Table B1)", "procedure,_shortened": "as §1"}, "Setaria faberi (SETFA) [5]": {"system": "Setaria faberi (SETFA)", "assay": "Post-emergence herbicidal glasshouse test (Table B1)", "procedure,_shortened": "as §1"}, "[6]": {"system": "Echinochloa crus-galh (ECHCG)", "assay": "Pre-emergence herbicidal glasshouse test (Table B1)", "procedure,_shortened": "as §1"}, "[7]": {"system": "Abutilon theophrasti (ABUTH)", "assay": "Pre-emergence herbicidal glasshouse test (Table B1)", "procedure,_shortened": "as §1"}, "[8]": {"system": "Ipomoea hederacea (IPOHE)", "assay": "Pre-emergence herbicidal glasshouse test (Table B1)", "procedure,_shortened": "as §1"}, "[9]": {"system": "Amaranthus retoflexus (AMARE)", "assay": "Pre-emergence herbicidal glasshouse test (Table B1)", "procedure,_shortened": "as §1"}, "Setaria faberi (SETFA) [10]": {"system": "Setaria faberi (SETFA)", "assay": "Pre-emergence herbicidal glasshouse test (Table B1)", "procedure,_shortened": "as §1"}}, "data": [{"smiles": "CCC(=O)Nc1c(OC(F)(F)C(F)F)ccc(C(=O)Nc2nnnn2CC)c1Cl", "note": "[Compound 1.103]", "values": [{"measurement": "POST Application ECHCG, percentage damage on five-point scale", "setting": "[1]; applied at 500 g/h", "value": "5 (5=80-100%)"}, {"measurement": "POST Application ABUTH, percentage damage on five-point scale", "setting": "[2]; applied at 500 g/h", "value": "5 (5=80-100%)"}, {"measurement": "POST Application IPOHE, percentage damage on five-point scale", "setting": "[3]; applied at 500 g/h", "value": "5 (5=80-100%)"}, {"measurement": "POST Application AMARE, percentage damage on five-point scale", "setting": "[4]; applied at 500 g/h", "value": "5 (5=80-100%)"}, {"measurement": "POST Application SETFA, percentage damage on five-point scale", "setting": "Setaria faberi (SETFA) [5]; applied at 500 g/h", "value": "5 (5=80-100%)"}, {"measurement": "PRE Application ECHCG, percentage damage on five-point scale", "setting": "[6]; applied at 500 g/h", "value": "3 (3=40-59%)"}, {"measurement": "PRE Application ABUTH, percentage damage on five-point scale", "setting": "[7]; applied at 500 g/h", "value": "4 (4=60-79%)"}, {"measurement": "PRE Application IPOHE, percentage damage on five-point scale", "setting": "[8]; applied", "value": "1 (1=0-19%)"}, {"measurement": "PRE Application AMARE, percentage damage on five-point scale", "setting": "[9]; applied at 500 g/h", "value": "5 (5=80-100%)"}, {"measurement": "PRE Application SETFA, percentage damage on five-point scale", "setting": "Setaria faberi (SETFA) [10]; applied at 500 g/h", "value": "1 (1=0-19%)"}]}, {"smiles": "CCC(CC)C(=O)Nc1c(OC(F)(F)F)ccc(C(=O)Nc2nnnn2C)c1Cl", "note": "[Compound 1.104]", "values": [{"measurement": "POST Application ECHCG, percentage damage on five-point scale", "setting": "[1]; applied at 500 g/h", "value": "5 (5=80-100%)"}, {"measurement": "POST Application ABUTH, percentage damage on five-point scale", "setting": "[2]; applied at 500 g/h", "value": "5 (5=80-100%)"}, {"measurement": "POST Application IPOHE, percentage damage on five-point scale", "setting": "[3]; applied at 500 g/h", "value": "5 (5=80-100%)"}, {"measurement": "POST Application AMARE, percentage damage on five-point scale", "setting": "[4]; applied at 500 g/h", "value": "5 (5=80-100%)"}, {"measurement": "POST Application SETFA, percentage damage on five-point scale", "setting": "Setaria faberi (SETFA) [5]; applied at 500 g/h", "value": "5 (5=80-100%)"}, {"measurement": "PRE Application ECHCG, percentage damage on five-point scale", "setting": "[6]; applied at 500 g/h", "value": "5 (5=80-100%)"}, {"measurement": "PRE Application ABUTH, percentage damage on five-point scale", "setting": "[7]; applied at 500 g/h", "value": "4 (4=60-79%)"}, {"measurement": "PRE Application IPOHE, percentage damage on five-point scale", "setting": "[8]; applied", "value": "2 (2=20-39%)"}, {"measurement": "PRE Application AMARE, percentage damage on five-point scale", "setting": "[9]; applied at 500 g/h", "value": "5 (5=80-100%)"}, {"measurement": "PRE Application SETFA, percentage damage on five-point scale", "setting": "Setaria faberi (SETFA) [10]; applied at 500 g/h", "value": "3 (3=40-59%)"}]}, {"smiles": "CCC(CC)C(=O)Nc1c(OC(F)(F)F)ccc(C(=O)Nc2nnnn2CC)c1Cl", "note": "[Compound 1.105]", "values": [{"measurement": "POST Application ECHCG, percentage damage on five-point scale", "setting": "[1]; applied at 500 g/h", "value": "5 (5=80-100%)"}, {"measurement": "POST Application ABUTH, percentage damage on five-point scale", "setting": "[2]; applied at 500 g/h", "value": "5 (5=80-100%)"}, {"measurement": "POST Application IPOHE, percentage damage on five-point scale", "setting": "[3]; applied at 500 g/h", "value": "5 (5=80-100%)"}, {"measurement": "POST Application AMARE, percentage damage on five-point scale", "setting": "[4]; applied at 500 g/h", "value": "5 (5=80-100%)"}, {"measurement": "POST Application SETFA, percentage damage on five-point scale", "setting": "Setaria faberi (SETFA) [5]; applied at 500 g/h", "value": "5 (5=80-100%)"}, {"measurement": "PRE Application ECHCG, percentage damage on five-point scale", "setting": "[6]; applied at 500 g/h", "value": "5 (5=80-100%)"}, {"measurement": "PRE Application ABUTH, percentage damage on five-point scale", "setting": "[7]; applied at 500 g/h", "value": "5 (5=80-100%)"}, {"measurement": "PRE Application IPOHE, percentage damage on five-point scale", "setting": "[8]; applied", "value": "2 (2=20-39%)"}, {"measurement": "PRE Application AMARE, percentage damage on five-point scale", "setting": "[9]; applied at 500 g/h", "value": "5 (5=80-100%)"}, {"measurement": "PRE Application SETFA, percentage damage on five-point scale", "setting": "Setaria faberi (SETFA) [10]; applied at 500 g/h", "value": "3 (3=40-59%)"}]}, {"smiles": "Cn1nnnc1NC(=O)c1ccc(OC(F)(F)F)c(NC(=O)C(C)(C)C)c1Cl", "note": "[Compound 1.107]", "values": [{"measurement": "POST Application ECHCG, percentage damage on five-point scale", "setting": "[1]; applied at 500 g/h", "value": "5 (5=80-100%)"}, {"measurement": "POST Application ABUTH, percentage damage on five-point scale", "setting": "[2]; applied at 500 g/h", "value": "5 (5=80-100%)"}, {"measurement": "POST Application IPOHE, percentage damage on five-point scale", "setting": "[3]; applied at 500 g/h", "value": "5 (5=80-100%)"}, {"measurement": "POST Application AMARE, percentage damage on five-point scale", "setting": "[4]; applied at 500 g/h", "value": "5 (5=80-100%)"}, {"measurement": "POST Application SETFA, percentage damage on five-point scale", "setting": "Setaria faberi (SETFA) [5]; applied at 500 g/h", "value": "5 (5=80-100%)"}, {"measurement": "PRE Application ECHCG, percentage damage on five-point scale", "setting": "[6]; applied at 500 g/h", "value": "5 (5=80-100%)"}, {"measurement": "PRE Application ABUTH, percentage damage on five-point scale", "setting": "[7]; applied at 500 g/h", "value": "5 (5=80-100%)"}, {"measurement": "PRE Application IPOHE, percentage damage on five-point scale", "setting": "[8]; applied", "value": "4 (4=60-79%)"}, {"measurement": "PRE Application AMARE, percentage damage on five-point scale", "setting": "[9]; applied at 500 g/h", "value": "5 (5=80-100%)"}, {"measurement": "PRE Application SETFA, percentage damage on five-point scale", "setting": "Setaria faberi (SETFA) [10]; applied at 500 g/h", "value": "5 (5=80-100%)"}]}, {"smiles": "Cn1nnnc1NC(=O)c1ccc(OC(F)F)c(NC(=O)c2ccccn2)c1Cl", "note": "[Compound 1.108]", "values": [{"measurement": "POST Application ECHCG, percentage damage on five-point scale", "setting": "[1]; applied at 125 g/ha", "value": "5 (5=80-100%)"}, {"measurement": "POST Application ABUTH, percentage damage on five-point scale", "setting": "[2]; applied at 125 g/ha", "value": "4 (4=60-79%)"}, {"measurement": "POST Application IPOHE, percentage damage on five-point scale", "setting": "[3]; applied at 125 g/ha", "value": "4 (4=60-79%)"}, {"measurement": "POST Application AMARE, percentage damage on five-point scale", "setting": "[4]; applied at 125 g/ha", "value": "5 (5=80-100%)"}, {"measurement": "POST Application SETFA, percentage damage on five-point scale", "setting": "Setaria faberi (SETFA) [5]; applied at 125 g/ha", "value": "4 (4=60-79%)"}, {"measurement": "PRE Application ECHCG, percentage damage on five-point scale", "setting": "[6]; applied at 125 g/ha", "value": "2 (2=20-39%)"}, {"measurement": "PRE Application ABUTH, percentage damage on five-point scale", "setting": "[7]; applied at 125 g/ha", "value": "4 (4=60-79%)"}, {"measurement": "PRE Application IPOHE, percentage damage on five-point scale", "setting": "[8]; applied at 125 g/ha", "value": "2 (2=20-39%)"}, {"measurement": "PRE Application AMARE, percentage damage on five-point scale", "setting": "[9]; applied at 125 g/ha", "value": "5 (5=80-100%)"}, {"measurement": "PRE Application SETFA, percentage damage on five-point scale", "setting": "Setaria faberi (SETFA) [10]; applied at 125 g/ha", "value": "3 (3=40-59%)"}]}]}
